Laboratory results taken from patent US20230340011A1 (Asteroid Therapeutics, priority 2022, published 2023).

target: LXRβ (Homo sapiens (Human), UniProt P55055); assay: In vitro assay LXRβ: PathHunter NHR CHO cells, LXRβ / Steroid Receptor Co-activator Peptide enzyme fragment complementation; assay type: cell-based; settings: PathHunter NHR CHO cells, full-length human LXRβ and SRCP, chemiluminescent signal; read-out: LXRβ PPI
Procedure: PathHunter NHR CHO cells stably transfected with tagged full-length human LXRβ and a nuclear fusion protein containing Steroid Receptor Co-activator Peptide (SRCP). The full-length human LXRβ was tagged with the ProLink™ component of the DiscoverX Enzyme Fragment Complementation (EFC) system and the SRCP domain is fused to the enzyme acceptor component (EA) expressed in the nucleus. Cells were seeded in a total volume of 20 μL into white walled, 384-well microplates and incubated at 37° C. overnight prior to testing. Assay media contained charcoal-dextran filtered serum to reduce the level of hormones present. Final assay vehicle concentration was 1%. […] Microplates were read following signal generation with a PerkinElmer Envision instrument for chemiluminescent signal detection.

LXRβ, sequence (P55055 whole entry, the tested form may be a part): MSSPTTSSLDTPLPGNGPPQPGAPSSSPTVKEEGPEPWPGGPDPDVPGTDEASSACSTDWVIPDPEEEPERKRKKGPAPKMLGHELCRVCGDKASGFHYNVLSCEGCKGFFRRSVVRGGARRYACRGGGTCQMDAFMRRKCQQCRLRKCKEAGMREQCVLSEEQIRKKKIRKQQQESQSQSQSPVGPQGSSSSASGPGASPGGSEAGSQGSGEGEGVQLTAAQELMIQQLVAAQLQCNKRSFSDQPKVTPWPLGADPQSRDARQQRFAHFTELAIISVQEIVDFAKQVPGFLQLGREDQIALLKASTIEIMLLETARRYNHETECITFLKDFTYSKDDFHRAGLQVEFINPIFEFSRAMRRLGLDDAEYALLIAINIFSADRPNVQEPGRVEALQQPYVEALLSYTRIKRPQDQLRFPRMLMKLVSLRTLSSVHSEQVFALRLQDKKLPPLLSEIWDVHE

| SMILES | EC50 [µM] |
| --- | --- |
| C[C@H](CCC(=O)N1CCC(CNS(=O)(=O)C(F)(F)F)CC1)[C@H]1CC[C@H]2[C@@H]3CC=C4C[C@@H](O)CC[C@]4(C)[C@H]3CC[C@]12C [Example 231, 1,1,1-trifluoro-N-((1-((R)-4-((3S,8S,9S,10R,13R,14S,17R)-3-hydroxy-10,13-dimethyl-2,3,4,7,8,9,10,11,12,13,14,15,16,17-tetradecahydro-1H-cyclopenta[a]phenanthren-17-yl)pentanoyl)piperidin-4-yl)methyl)methanesulfonamide] | > 10 |
| C[C@H](CCC(=O)N1CCN(C(=O)OCCO)CC1)[C@H]1CC[C@H]2[C@@H]3CC=C4C[C@@H](O)CC[C@]4(C)[C@H]3CC[C@]12C [Example 281, 2-hydroxyethyl 4-[(4R)-4-[(1R,3aS,3bS,7S,9aR,9bS,11aR)-7-hydroxy-9a,11a-dimethyl-1H,2H,3H,3aH,3bH,4H,6H,7H,8H,9H,9aH,9bH,10H,11H,11aH-cyclopenta[a]phenanthren-1-yl]pentanoyl]piperazine-1-carboxyla] | > 10 |
| CON(CC(=O)OC(C)(C)C)C(=O)CC[C@@H](C)[C@H]1CC[C@H]2[C@@H]3CC=C4C[C@@H](O)CC[C@]4(C)[C@H]3CC[C@]12C [Example 75, tert-butyl N—((R)-4-((3S,8S,9S,10R,13R,14S,17R)-3-hydroxy-10,13-dimethyl-2,3,4,7,8,9,10,11,12,13,14,15,16,17-tetradecahydro-1H-cyclopenta[a]phenanthren-17-yl)pentanoyl)-N-methoxyglycinate] | 0.25 to 1 |
| CC(NC(=O)C(C)(C)O)C1CCN(C(=O)CC[C@@H](C)[C@H]2CC[C@H]3[C@@H]4CC=C5C[C@@H](O)CC[C@]5(C)[C@H]4CC[C@]23C)CC1 (stereo partly drawn) [Example 227, 2-hydroxy-N-(1-(1-((R)-4-((3S,8S,9S,10R,13R,14S,17R)-3-hydroxy-10,13-dimethyl-2,3,4,7,8,9,10,11,12,13,14,15,16,17-tetradecahydro-1H-cyclopenta[a]phenanthren-17-yl)pentanoyl)piperidin-4-yl)ethyl)-2-methylpropanamide] | > 10 |
| CC(C)C(=O)N1CCN(C(=O)CC[C@@H](C)[C@H]2CC[C@H]3[C@@H]4CC=C5C[C@@H](O)CC[C@]5(C)[C@H]4CC[C@]23C)CC1 [Example 315, (R)-4-((3S,8S,9S,10R,13R,14S,17R)-3-hydroxy-10,13-dimethyl-2,3,4,7,8,9,10,11,12,13,14,15,16,17-tetradecahydro-1H-cyclopenta[a]phenanthren-17-yl)-1-(4-isobutyrylpiperazin-1-yl)pentan-1-one] | > 10 |
| C[C@H](CCC(=O)N1CCN(c2ccncn2)CC1)[C@H]1CC[C@H]2[C@@H]3CC=C4C[C@@H](O)CC[C@]4(C)[C@H]3CC[C@]12C [Example 302, (R)-4-((3S,8S,9S,10R,13R,14S,17R)-3-hydroxy-10,13-dimethyl-2,3,4,7,8,9,10,11,12,13,14,15,16,17-tetradecahydro-1H-cyclopenta[a]phenanthren-17-yl)-1-(4-(pyrimidin-4-yl)piperazin-1-yl)pentan-1-one] | > 10 |
| C[C@@H](NC(=O)C(=O)N(C)C)[C@H]1CC[C@H]2[C@@H]3CC=C4C[C@@H](O)CC[C@]4(C)[C@H]3CC[C@]12C (single isomer, unassigned) [Example 119] | > 10 |
| C[C@H](CCC(=O)N(C)C)[C@H]1CC[C@H]2[C@@H]3CC=C4C[C@@H](O)C[C@H](O)[C@]4(C)[C@H]3CC[C@]12C [Example 123, (R)-4-((1S,3R,8S,9S,10R,13R,14S,17R)-1,3-dihydroxy-10,13-dimethyl-2,3,4,7,8,9,10,11,12,13,14,15,16,17-tetradecahydro-1H-cyclopenta[a]phenanthren-17-yl)-N,N-dimethylpentanamide] | 1 to 10 |
